For twelve molecules, IC50 results are on record in patent US11999699B2, “Substituted pyrazole amides” (GRUENENTHAL GMBH, priority 2021, dated 2024).

In this test the target is T1, human NaV1.8 (Homo sapiens, UniProt Q9Y5Y9).
T1 construct: The following NaV1.8 recombinant cell line was used for recordings: HEK-NaV1.8 (NM 006514.1); expressed in transfected cells; host or cells: HEK (recombinant cell line HEK-NaV1.8)
The test is described as follows: Electrophysiology: automated whole-cell voltage-clamp (patch clamp, Qube384) recordings of sodium currents in HEK-NaV1.8 cells. In kind it is cell-based. The conditions noted are these: potency data either taken from inactivated or resting state, read-out: Potency category (human NaV1.8 IC50). The method in brief: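 Automated whole-cell patch clamp at room temperature on HEK cells expressing human NaV1.8, with 0.3% DMSO vehicle controls. State-dependent protocol from −120 mV tested resting (P1) and half-inactivated (P2, 4 s at V1/2) channels, plus 40-pulse trains at 10 and 20 Hz. Values after ~12 min compound exposure were normalised to baseline and corrected for vehicle run-down; IC50 from a 4-parameter logistic fit, taken from inactivated or resting state.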
Background: In patch-clamp work, channel activity is measured electrically.

Molecules are shown by their SMILES.

T1 sequence (Q9Y5Y9 whole entry): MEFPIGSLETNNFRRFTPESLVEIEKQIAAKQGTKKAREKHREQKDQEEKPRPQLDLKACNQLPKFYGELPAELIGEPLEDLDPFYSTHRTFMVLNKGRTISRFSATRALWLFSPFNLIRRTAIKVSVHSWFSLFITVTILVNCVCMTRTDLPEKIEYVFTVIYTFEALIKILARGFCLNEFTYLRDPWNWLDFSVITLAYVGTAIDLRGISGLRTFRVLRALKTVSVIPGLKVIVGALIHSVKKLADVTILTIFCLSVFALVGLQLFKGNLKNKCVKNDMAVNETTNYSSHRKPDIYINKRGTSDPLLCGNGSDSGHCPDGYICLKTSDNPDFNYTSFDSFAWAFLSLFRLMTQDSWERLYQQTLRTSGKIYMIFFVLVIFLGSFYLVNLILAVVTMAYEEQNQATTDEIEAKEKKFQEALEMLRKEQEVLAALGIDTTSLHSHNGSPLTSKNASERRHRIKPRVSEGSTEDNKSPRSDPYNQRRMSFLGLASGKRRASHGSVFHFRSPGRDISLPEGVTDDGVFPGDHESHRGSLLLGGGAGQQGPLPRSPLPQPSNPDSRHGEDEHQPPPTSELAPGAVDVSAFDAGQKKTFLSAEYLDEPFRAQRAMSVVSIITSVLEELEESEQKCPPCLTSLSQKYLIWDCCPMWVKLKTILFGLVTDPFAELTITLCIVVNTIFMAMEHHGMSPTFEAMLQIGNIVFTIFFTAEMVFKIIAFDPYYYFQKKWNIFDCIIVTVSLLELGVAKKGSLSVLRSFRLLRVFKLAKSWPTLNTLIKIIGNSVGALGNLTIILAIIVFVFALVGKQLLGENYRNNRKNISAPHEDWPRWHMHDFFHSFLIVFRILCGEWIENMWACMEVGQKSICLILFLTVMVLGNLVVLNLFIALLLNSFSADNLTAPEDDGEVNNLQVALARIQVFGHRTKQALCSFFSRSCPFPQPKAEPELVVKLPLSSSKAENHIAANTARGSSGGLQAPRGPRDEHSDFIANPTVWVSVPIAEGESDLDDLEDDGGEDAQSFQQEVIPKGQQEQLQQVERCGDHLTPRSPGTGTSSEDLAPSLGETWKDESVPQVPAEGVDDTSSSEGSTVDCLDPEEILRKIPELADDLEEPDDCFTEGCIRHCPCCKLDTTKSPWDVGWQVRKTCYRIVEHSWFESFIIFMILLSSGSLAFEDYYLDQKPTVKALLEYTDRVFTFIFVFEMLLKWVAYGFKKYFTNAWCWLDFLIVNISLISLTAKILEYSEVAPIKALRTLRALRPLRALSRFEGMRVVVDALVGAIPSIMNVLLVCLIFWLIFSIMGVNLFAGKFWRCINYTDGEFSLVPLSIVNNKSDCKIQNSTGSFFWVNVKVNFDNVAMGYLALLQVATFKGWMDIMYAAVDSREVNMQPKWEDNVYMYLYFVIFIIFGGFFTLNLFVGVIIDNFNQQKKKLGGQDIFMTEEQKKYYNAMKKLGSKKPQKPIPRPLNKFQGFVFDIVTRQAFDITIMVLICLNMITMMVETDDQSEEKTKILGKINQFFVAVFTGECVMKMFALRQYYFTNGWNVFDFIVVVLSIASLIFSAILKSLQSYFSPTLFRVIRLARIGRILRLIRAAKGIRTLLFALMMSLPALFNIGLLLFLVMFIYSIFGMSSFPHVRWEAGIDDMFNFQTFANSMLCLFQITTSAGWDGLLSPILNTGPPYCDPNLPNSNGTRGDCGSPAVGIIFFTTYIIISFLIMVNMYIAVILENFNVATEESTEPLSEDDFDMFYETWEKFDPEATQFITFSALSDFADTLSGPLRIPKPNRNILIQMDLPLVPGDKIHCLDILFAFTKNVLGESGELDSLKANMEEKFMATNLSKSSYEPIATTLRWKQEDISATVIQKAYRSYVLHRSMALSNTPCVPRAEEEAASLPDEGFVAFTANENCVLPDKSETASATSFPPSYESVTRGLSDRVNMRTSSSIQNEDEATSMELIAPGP
T1 sequence (Q9NY72 23-215 partner): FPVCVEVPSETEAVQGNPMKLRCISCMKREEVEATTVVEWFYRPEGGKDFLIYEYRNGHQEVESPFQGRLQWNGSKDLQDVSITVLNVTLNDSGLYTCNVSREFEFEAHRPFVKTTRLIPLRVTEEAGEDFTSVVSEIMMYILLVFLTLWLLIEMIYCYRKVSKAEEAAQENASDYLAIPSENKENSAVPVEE

`NC(=O)c1cc(NC(=O)c2c(OCC(F)(F)F)c(C3CC3)nn2CC2CCC(F)(F)C2)ccn1` (stereo not drawn) [SC-298, 4-(3-cyclopropyl-1-((3,3-difluorocyclopentyl)methyl)-4-(2,2,2-trifluoroethoxy)-1H-pyrazole-5-carboxamido)picolinamide]: the IC50 (commonly the concentration needed to halve the response being measured) lay within 1000 to 10000 nM.

On to `Cc1c(C(C)(F)F)nn(CC2(C(F)(F)F)CC(F)(F)C2)c1C(=O)Nc1ccnc(C(N)=O)c1` [SC-299, 4-(1-((3,3-difluoro-1-(trifluoromethyl)cyclobutyl)methyl)-3-(1,1-difluoroethyl)-4-methyl-1H-pyrazole-5-ca±oxamido)picolinamide], for which the IC50 was at most 100 nM.

With `Cc1c(C(C)(F)F)nn(C[C@H]2C[C@@H](F)C2)c1C(=O)Nc1ccnc(C(N)=O)c1` [SC-301, 4-(3-(1,1-difluoroethyl)-1-((3-fluorocyclobutyl)methyl)-4-methyl-1H-pyrazole-5-carboxamido)picolinamide], the IC50 is 100 to 1000 nM.

On to `CCc1nn(CC2CC(F)(F)C2)c(C(=O)Nc2ccnc(S(C)(=O)=O)c2)c1C` [SC-302, 1-((3,3-difluorocyclobutyl)methyl)-3-ethyl-4-methyl-N-(2-(methylsulfonyl)pyridin-4-yl)-1H-pyrazole-5-carboxamide], for which the half-inhibitory concentration (IC50) lay within 100 to 1000 nM.

Take `C[S+]([O-])c1cc(NC(=O)c2c(C(F)(F)F)c(C(C)(F)F)nn2CC2CC(F)(F)C2)ccn1` (stereo not drawn) [SC-303, 1-((3,3-difluorocyclobutyl)methyl)-3-(1,1-difluoroethyl)-N-(2-(methylsulfinyl)pyridin-4-yl)-4-(trifluoromethyl)-1H-pyrazole-5-carboxamide]: the concentration for half-maximal inhibition (IC50) was at most 100 nM.

For the molecule `Cc1nn(CC2CCC(F)(F)C2)c(C(=O)Nc2cccc(S(N)(=O)=O)c2)c1OC(F)(F)F` (stereo not drawn) [SC-304, 1-((3,3-difluorocyclopentyl)methyl)-3-methyl-N-(3-sulfamoyiphenyl)-4-(trifluoromethoxy)-1H-pyrazole-5-carboxamide], the half-inhibitory concentration (IC50) was in the range of 100 to 1000 nM.

For the molecule `CS(=O)(=O)c1cc(NC(=O)c2c(CC(F)(F)F)c(C3CC3)nn2CC2CCOCC2)ccn1` [SC-305, 3-cyclopropyl-N-(2-(methylsulfonyl)pyridin-4-yl)-1-((tetrahydro-2H-pyran-4-yl)methyl)-4-(2,2,2-trifluoroethyl)-1H-pyrazole-5-carboxamide], the IC50 fell in the range of 1000 to 10000 nM.

For `COC1(Cn2nc(C(C)(F)F)c(C)c2C(=O)Nc2ccnc(S(N)(=O)=O)c2)CC1` [SC-308, 3-(1,1-difluoroethyl)-1-((1-methoxycyclopropyl)methyl)-4-methyl-N-(2-sulfamoylpyridin-4-yl)-1H-pyrazole-5-carboxamide], the half-maximal inhibitory concentration (IC50) was in the range of 1000 to 10000 nM.

Regarding `Cc1c(OC(C)(F)F)nn(CC2CC(F)(F)C2)c1C(=O)Nc1ccnc(C(N)=O)c1` [SC-309, 4-(1-((3,3-difluorocyclobutyl)methyl)-3-(1,1-difluoroethoxy)-4-methyl-1H-pyrazole-5-carboxamido)picolinamide], the IC50 was 1000 to 10000 nM.

With `Cc1c(C(C)(F)F)nn(CC2(F)CC2)c1C(=O)Nc1ccnc(S(N)(=O)=O)c1` [SC-310, 3-(1,1-difluoroethyl)-1-((1-fluorocyclopropyl)methyl)-4-methyl-N-(2-sulfamoylpyridin-4-yl)-lH-pyrazole-5-carboxamide], the IC50 fell in the range of 100 to 1000 nM.

With `Cc1c(C(C)(F)F)nn(CC2(C(F)F)CC(F)(F)C2)c1C(=O)Nc1ccnc(C(N)=O)c1` [SC-311, 4-(3-(1,1-difluoroethyl)-1-((1-(difluoromethyl)-3,3-difluorocyclobutyl)methyl)-4-methyl-1H-pyrazole-5-carboxamido)picolinamide], the IC50 is at most 100 nM.

In the case of `Cc1c(C(C)(F)F)nn(CC2(C)CC2)c1C(=O)Nc1ccnc(S(N)(=O)=O)c1` [SC-313, 3-(1,1-difluoroethyl)-4-methyl-1-((1-methyleyelopropyl)methyl)-N-(2-sulfamoylpyridin-4-yl)-lH-pyrazole-5-carboxamide], the IC50 is at most 100 nM.
